Data as given in patent publication US12303497B2, “Anti-androgens for the treatment of metastatic castration-sensitive prostate cancer” (priority 2019, dated 2025).

System: patients with metastatic castration-sensitive prostate cancer (mCSPC)
Conditions: Grade ≥3

CNC(=O)c1ccc(N2C(=S)N(c3cnc(C#N)c(C(F)(F)F)c3)C(=O)C23CCC3)cc1F [Apalutamide, 4-[7-(6-cyano-5-trifluoromethylpyridin-3-yl)-8-oxo-6-thioxo-5,7-diazaspiro[3.4]oct-5-yl]-2-fluoro-N-methylbenzamide]
4 (0.8) no. (%): AE leading to dose interruption: Aspartate aminotransferase or alanine aminotransferase increased | AE leading to dose interruption: Infections | AE leading to dose interruption: Pain (grouped term)
7 (1.3) no. (%): AE leading to discontinuation: Rash (grouped term)
20 (3.8) no. (%): AE leading to dose interruption: Rash (grouped term)
1 (0.2) no. (%): AE leading to discontinuation: Parkinson's disease | AE leading to discontinuation: Pulmonary embolism | AE leading to discontinuation: Radiculopathy | AE leading to discontinuation: Seizure | AE leading to discontinuation: Sudden cardiac death | AE leading to dose interruption: Atrial fibrillation | AE leading to dose interruption: Blood alkaline phosphatase increased | AE leading to dose interruption: Cardiac failure congestive | AE leading to dose interruption: Cerebrovascular accident | AE leading to dose interruption: Cognitive disorder | AE leading to dose interruption: Confusional state | AE leading to dose interruption: Decreased appetite | AE leading to dose interruption: Diabetes mellitus | AE leading to dose interruption: Dysuria | AE leading to dose interruption: Fall | AE leading to dose interruption: Fatigue | AE leading to dose interruption: Febrile neutropenia | AE leading to dose interruption: Gamma-glutamyltransferase increased | AE leading to dose interruption: Gastric ulcer perforation | AE leading to dose interruption: General physical health deterioration | AE leading to dose interruption: Hematoma | AE leading to dose interruption: Hemorrhage intracranial | AE leading to dose interruption: Hemorrhagic erosive gastritis | AE leading to dose interruption: Hip fracture | AE leading to dose interruption: Hyperbilirubinemia | AE leading to dose interruption: Hypokalemia | AE leading to dose interruption: Hyponatremia | AE leading to dose interruption: Ischemic cardiac events | AE leading to dose interruption: Large intestinal ulcer perforation | AE leading to dose interruption: New cancer neoplasm | AE leading to dose interruption: Rheumatoid arthritis | AE leading to dose interruption: Spinal cord compression | AE leading to dose interruption: Subarachnoid hematoma
3 (0.6) no. (%): AE leading to dose interruption: Asthenia
6 (1.1) no. (%): AE leading to dose interruption: Hypertension
0 no. (%): AE leading to discontinuation: Lip swelling | AE leading to discontinuation: Loss of consciousness | AE leading to discontinuation: Pleural effusion | AE leading to discontinuation: Pulmonary edema | AE leading to discontinuation: Respiratory failure | AE leading to discontinuation: Subdural hemorrhage | AE leading to discontinuation: Sudden death | AE leading to dose interruption: Anxiety | AE leading to dose interruption: Arthralgia | AE leading to dose interruption: Bile duct obstruction | AE leading to dose interruption: Cardiac amyloidosis | AE leading to dose interruption: Cardiac disorder | AE leading to dose interruption: Cardiac failure | AE leading to dose interruption: Cheilitis | AE leading to dose interruption: Chronic hepatitis | AE leading to dose interruption: Constipation | AE leading to dose interruption: Dehydration | AE leading to dose interruption: Depression | AE leading to dose interruption: Diarrhea | AE leading to dose interruption: Diplegia | AE leading to dose interruption: Dizziness | AE leading to dose interruption: Dyspnea | AE leading to dose interruption: Edema | AE leading to dose interruption: Eyelid edema | AE leading to dose interruption: Facial edema | AE leading to dose interruption: Gastritis | AE leading to dose interruption: Hallucination | AE leading to dose interruption: Headache | AE leading to dose interruption: Hepatic cirrhosis | AE leading to dose interruption: Hepatic failure | AE leading to dose interruption: Hot flush | AE leading to dose interruption: Hydronephrosis | AE leading to dose interruption: Hypersensitivity | AE leading to dose interruption: Influenza-like illness | AE leading to dose interruption: Insomnia | AE leading to dose interruption: Mental status changes | AE leading to dose interruption: Muscular weakness | AE leading to dose interruption: Musculoskeletal stiffness | AE leading to dose interruption: Nausea | AE leading to dose interruption: Osteoarthritis | AE leading to dose interruption: Osteoporosis | AE leading to dose interruption: Pathological fracture | AE leading to dose interruption: Peripheral edema | AE leading to dose interruption: Peripheral swelling | AE leading to dose interruption: Proctalgia | AE leading to dose interruption: Pyrexia | AE leading to dose interruption: Renal injury | AE leading to dose interruption: Seizure | AE leading to dose interruption: Stomatitis | AE leading to dose interruption: Subarachnoid hemorrhage | AE leading to dose interruption: Subdural hemorrhage
2 (0.4) no. (%): AE leading to dose interruption: Chronic obstructive pulmonary disease | AE leading to dose interruption: Hematuria | AE leading to dose interruption: Hypertriglyceridemia | AE leading to dose interruption: Neutropenia
5 (1.0) no. (%): AE leading to discontinuation: New cancer neoplasm
